Test results reported in patent publication US20060058374A1, “Urotensin II receptor agents” (priority 2002, published 2006).

Tested on: not given
Conditions: not given

| melting point | Compound |
| --- | --- |
| > 250 °C (dec.) | COc1cccc2c1CC(CCN(C)C)(c1ccccc1)OC2=O.Cl (centres unmarked) |
| > 250 °C (dec.) | CN1CCN(CCC2(c3ccc(Cl)cc3)Cc3ccccc3C(=O)O2)CC1.Cl (centres unmarked) |
| > 250 °C (dec.) | Cl.O=C1OC(CCN2CCCC2)(c2ccc(Cl)cc2)Cc2ccccc21 (centres unmarked) |
| > 250 °C (dec.) | Cl.O=C1OC(CCN2CCCCC2)(c2ccc(Cl)cc2)Cc2ccccc21 (centres unmarked) |
| > 250 °C (dec.) | COc1ccc(C2(CCN(C)C)Cc3ccccc3C(=O)O2)cc1.Cl (centres unmarked) |
| > 250 °C (dec.) | COc1cccc(C2(CCN(C)C)Cc3ccccc3C(=O)O2)c1.Cl (centres unmarked) |
| > 250 °C (dec.) | COc1ccccc1C1(CCN(C)C)Cc2ccccc2C(=O)O1.Cl (centres unmarked) |
| > 250 °C (dec.) | CN(C)CCC1(c2cccc(F)c2)Cc2ccccc2C(=O)O1.Cl (centres unmarked) |
| 245.2 to 246.3 °C (dec.) | CN(C)CCC1(c2ccc(Oc3ccccc3)cc2)Cc2ccccc2C(=O)O1.Cl (centres unmarked) |
| > 250 °C (dec.) | CN(C)CCC1(c2ccccc2Cl)Cc2ccccc2C(=O)O1.Cl (centres unmarked) |
| > 250 °C (dec.) | CN(C)CCC1(c2cccs2)Cc2ccccc2C(=O)O1.Cl (centres unmarked) |
| > 250 °C (dec.) | CN(C)CCC1(c2ccccc2)Cc2ccccc2C(=O)O1.Cl (centres unmarked) |
| > 250 °C (dec.) | Cc1cccc2c1CC(CCN(C)C)(c1ccccc1)OC2=O.Cl (centres unmarked) |
| > 250 °C (dec.) | Cc1ccc2c(c1)C(=O)OC(CCN(C)C)(c1ccccc1)C2.Cl (centres unmarked) |
| > 250 °C (dec.) | CCN(CC)CCC1(c2ccc(Cl)cc2)Cc2ccccc2C(=O)O1.Cl (centres unmarked) |
| > 250 °C (dec.) | CC1c2ccccc2C(=O)OC1(CCN(C)C)c1ccc(Cl)cc1.Cl (centres unmarked) |
| > 250 °C (dec.) | CN(C)CCC1(c2cccc(Cl)c2)Cc2ccccc2C(=O)O1.Cl (centres unmarked) |
| > 250 °C (dec.) | Cc1cccc2c1C(=O)OC(CCN(C)C)(c1ccc(Cl)cc1)C2.Cl (centres unmarked) |
| > 250 °C (dec.) | CN(C)CCCC1(c2ccc(Cl)cc2)Cc2ccccc2C(=O)O1.Cl (centres unmarked) |

Tested on: rats
Conditions: oral administration to rats; cited from earlier work

| Compound | antihypertensive action |
| --- | --- |
| CC(CN(C)C)C1(c2ccccc2)Cc2ccccc2C(=O)O1 (centres unmarked) [3-(2-dimethylamino-(1-methyl-ethyl))-3,4-dihydro-3-phenyl-isocoumarin] | ineffective |

Tested on: rats
Conditions: oral administration to rats; cited from earlier work
Remark: another data set of the same source

| Compound | diuretic action |
| --- | --- |
| CC(CN(C)C)C1(c2ccccc2)Cc2ccccc2C(=O)O1 (centres unmarked) [3-(2-dimethylamino-(1-methyl-ethyl))-3,4-dihydro-3-phenyl-isocoumarin] | diuretics |
| COc1ccc(C2(CCN(C)C)Cc3ccccc3C(=O)O2)cc1 (centres unmarked) [3-(2-dimethylamino-ethyl)-3,4-dihydro-3-(p-methoxy-phenyl)-isocoumarin] | diuretics |
| CN(C)CCC1(c2ccccc2)Cc2ccccc2C(=O)O1 (centres unmarked) [3-(2-dimethylamino-ethyl)-3,4-dihydro-3-phenyl-isocoumarin] | diuretics |

Tested on: dogs
Conditions: intravenal administration to dogs; cited from earlier work

| Compound | anti-hypertensive activity |
| --- | --- |
| COc1ccc(C2(CCN(C)C)Cc3ccccc3C(=O)O2)cc1 (centres unmarked) [3-(2-dimethylamino-ethyl)-3,4-dihydro-3-(p-methoxy-phenyl)-isocoumarin] | anti-hypertensive activity |
| CN(C)CCC1(c2ccccc2)Cc2ccccc2C(=O)O1 (centres unmarked) [3-(2-dimethylamino-ethyl)-3,4-dihydro-3-phenyl-isocoumarin] | anti-hypertensive activity |
| CN(C)CCC1(c2ccccc2)Cc2ccccc2CO1 (centres unmarked) [3-(2-dimethylamino-ethyl)-3-(phenyl)-isochroman] | anti-hypertensive activity |
